In patent publication US20240041853A1, “DOSAGE REGIMEN FOR A NR2B-NMDA RECEPTOR NAM FOR THE TREATMENT OF DEPRESSION” (Novartis AG, priority 2020, published 2024):

Assays:
[1] = tested on: patients with treatment resistant depression (TRD); assay: Phase IIa proof of concept study, efficacy (MADRS, CGI-I); format: in vivo, human
Protocol: (§1) A multi-center, randomized, subject and investigator blinded, placebo controlled, active comparator, parallel group, proof of concept study to evaluate the efficacy, safety, tolerability, and pharmacokinetics of Compound (I) in patients with treatment resistant depression (TRD). The study included two different active Compound (I) doses of 0.16 mg/kg and 0.32 mg/kg given in two different regiments—weekly and bi-weekly (every other week). The study also included a ketamine arm.
(§2) Adults with major depressive disorder and prior failure of ≥2 standard antidepressants of adequate dose and >8 weeks duration in a major depressive episode (per DSM-5 criteria) and Montgomery-Åsberg Depression Rating Scale (MADRS) score ≥24 were eligible. Patients were randomized (3:3:3:3:6:4) to one of six treatment arms for 36 days: low dose (0.16 mg/kg) Compound (I) weekly (N=11) or every other week (q2w [N=10]); high dose (0.32 mg/kg) Compound (I) weekly (N=10) or q2w (N=9); placebo (N=20); or ketamine 0.5 mg/kg weekly (N=10). Change in MADRS total score at 24 hours (h) from baseline (primary endpoint), was analyzed using analysis of covariance. Secondary endpoints included change in MADRS score at 48 hours and 6 weeks and clinical global impression-improvement (CGI-I) score at 24 hours, 48 hours and 6 weeks. Safety and tolerability were also assessed.

[2] = tested on: patients with treatment resistant depression (TRD); assay: Phase IIa proof of concept study, safety and tolerability (adverse events); format: in vivo, human
Protocol: as §1, §2

[3] = tested on: patients with unipolar and bipolar depression; conditions: cited from earlier work
[4] = Garner et al 2015; Pagnozzi et al 1995; Preskorn et al 2008; cited from earlier work

CNC1(c2ccccc2Cl)CCCCC1=O (stereo not drawn) [ketamine]
Adjusted mean difference (ΔAM) in MADRS vs placebo ([1]; at 24 hours, ketamine 0.5 mg/kg weekly, p=0.046): −5.67 | mean decrease in MADRS score ([1]; at 24 hours, ketamine group, 0.5 mg/kg weekly): 12.94 points | Adjusted mean difference (ΔAM) in MADRS vs placebo ([1]; at 48 h, ketamine 0.5 mg/kg weekly, p=0.019): −11.02 | Adverse events (AEs), patients ([2]; ketamine 0.5 mg/kg weekly): 50% | Dissociative AEs, patients ([2]; ketamine 0.5 mg/kg weekly): 50% | incidence of sedation ([2]; ketamine 0.5 mg/kg weekly): 10% | effect on suicidality ([3]; Katalinic et al 2013, Murrough et al 2015): reduce suicidality | antidepressant effects ([3]; single dose 0.5 mg/kg infused over 40 minutes, 7 patients, Berman et al 2000): rapid antidepressant effects

C[C@@H]([C@@H](O)c1ccc(O)cc1)N1CCC(O)(c2ccccc2)CC1 [CP-101,606]
frequency of dissociative adverse events [4]: low frequencies of dissociative adverse events

Oc1ccc([C@@H](O)CN2C[C@H]3C[C@H](Oc4ccccc4F)C[C@H]3C2)nc1 [Compound (I)]
time in which efficacy occurred ([1]; 0.16 mg/kg or 0.32 mg/kg, weekly or every other week): ≤ 24 h | ΔAM [80% CI] in MADRS score vs placebo ([1]; Week 6, 0.16 mg/kg q2w, 80% CI [−11.8, −1.15], p=0.059, greatest benefit): −6.46 | maintenance of efficacy ([1]; after repeated dosing): maintained at 6 weeks | CGI-I scores vs placebo ([1]; at 24 hours, 48 hours and 6 weeks): suggested benefits | Adjusted mean difference (ΔAM) in MADRS vs placebo ([1]; at 24 hours, pooled 0.16 mg/kg, p=0.001): −8.25 | mean decrease in MADRS score ([1]; at 24 hours, pooled Compound (I) 0.16 mg/kg group (weekly and q2w)): 15.51 points | mean decrease in MADRS score ([1]; at 24 hours, pooled Compound (I) 0.32 mg/kg group (weekly and q2w)): 12.98 points | Adjusted mean difference (ΔAM) in MADRS vs placebo ([1]; at 24 hours, second pooled Compound (I) group (dose figure missing in print), p=0.019): −5.71 | Adjusted mean difference (ΔAM) in MADRS vs placebo ([1]; at 48 h, pooled 0.16 mg/kg, p=0.013): −7.06 | Adjusted mean difference (ΔAM) in MADRS vs placebo ([1]; at 48 h, second pooled Compound (I) group (dose figure missing in print), p=0.013): −7.37 | efficacy of 0.16 mg/kg compared with 0.32 mg/kg ([1]; each administered once every week or once every other week): as effective as a dose of 0.32 mg/kg | improvement in MADRS score vs placebo ([1]; patients with TRD, overall conclusion): significant improvement | Time to both onset and resolution of dissociative AEs and sedation ([2]; in vivo): longer for Compound (I) than for ketamine | safety signals ([2]; in vivo): No new safety signals were identified

Cc1ccc(COC(=O)N2CC[C@H](CNc3ncccn3)[C@H](F)C2)cc1 [MK-0657]
frequency of dissociative adverse events [4]: low frequencies of dissociative adverse events
